For one series, the target named is T1, CYP3A4 (Homo sapiens, UniProt P08684).
T1 construct: from tissue; host or cells: human liver microsomes
Briefly: CYP inhibition assay, human liver microsomes, substrate midazolam. It counts as in vitro ADME. As for the experimental part:
(§1) 2 μL of test compound/Positive Inhibitor working solutions is then added to the reaction plate (2 μL/well). For control, 2 μL of Acetonitrile (ACN) containing DMSO (without inhibitor) is added to the reaction plate. 20 μL of substrate pool is added to all the wells of the reaction plate. The samples are mixed in a vortexer and pre-incubated at 37° C. for 20 min. The NADPH solution is pre-warmed at 37° C. for 5 min. 20 μL of pre-warmed NADPH solution is added to the reaction plate and then incubated at 37° C. for 10 min. The reaction is terminated by adding cold ACN (200 μL/well) to the reaction mixture and centrifuging at 4,000 rpm for 20 minutes. After centrifugation, supernatant is separated and analyzed by LC-MS/MS.
(§2) % inhibition and IC50 are calculated using Graphpad Prism software.

The target of another series is T2, CYP2C9 (Homo sapiens, UniProt P11712).
T2 construct: from tissue; host or cells: human liver microsomes
T2 sequence (P11712 whole entry): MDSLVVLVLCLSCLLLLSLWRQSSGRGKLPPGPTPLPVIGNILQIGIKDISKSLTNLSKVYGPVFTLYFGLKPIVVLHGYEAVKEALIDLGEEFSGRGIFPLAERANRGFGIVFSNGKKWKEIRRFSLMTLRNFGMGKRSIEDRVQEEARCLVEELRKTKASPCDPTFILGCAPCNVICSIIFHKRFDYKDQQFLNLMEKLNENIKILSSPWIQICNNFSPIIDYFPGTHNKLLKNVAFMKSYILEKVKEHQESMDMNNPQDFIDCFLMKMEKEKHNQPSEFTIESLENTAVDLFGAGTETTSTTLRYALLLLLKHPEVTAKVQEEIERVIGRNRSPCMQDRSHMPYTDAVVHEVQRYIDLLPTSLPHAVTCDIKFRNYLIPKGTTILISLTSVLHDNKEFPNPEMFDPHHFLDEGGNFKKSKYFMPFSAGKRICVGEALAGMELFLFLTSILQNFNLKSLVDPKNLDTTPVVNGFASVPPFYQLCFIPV
Briefly: CYP inhibition assay, human liver microsomes, substrate diclofenac. Type of series: in vitro ADME. The procedure: as §1, §2

Another series has as its target T3, CYP2D6 (Homo sapiens, UniProt P10635).
T3 construct: from tissue; host or cells: human liver microsomes
Briefly: biochemical. Type of series: in vitro ADME. The procedure:
158 μL of Human Liver Microsomes working stock solution is added to a reaction plate (0.253 mg/mL, 158 μL/well). 2 μL of test compound/Positive Inhibitor working solutions is then added to the reaction plate (2 μL/well). For control, 2 μL of Acetonitrile (ACN) containing DMSO (without inhibitor) is added to the reaction plate. 20 μL of substrate pool is added to all the wells of the reaction plate. The samples are mixed in a vortexer and pre-incubated at 37° C. for 20 min. The NADPH solution is pre-warmed at 37° C. for 5 min. 20 μL of pre-warmed NADPH solution is added to the reaction plate and then incubated at 37° C. for 10 min. The reaction is terminated by adding cold ACN (200 μL/well) to the reaction mixture and centrifuging at 4,000 rpm for 20 minutes. After centrifugation, supernatant is separated and analyzed by LC-MS/MS.
as §2

The next series has as its target T4, CYP1A2 (Homo sapiens, UniProt P05177).
T4 construct: from tissue; host or cells: human liver microsomes
T4 sequence (P05177 1-516): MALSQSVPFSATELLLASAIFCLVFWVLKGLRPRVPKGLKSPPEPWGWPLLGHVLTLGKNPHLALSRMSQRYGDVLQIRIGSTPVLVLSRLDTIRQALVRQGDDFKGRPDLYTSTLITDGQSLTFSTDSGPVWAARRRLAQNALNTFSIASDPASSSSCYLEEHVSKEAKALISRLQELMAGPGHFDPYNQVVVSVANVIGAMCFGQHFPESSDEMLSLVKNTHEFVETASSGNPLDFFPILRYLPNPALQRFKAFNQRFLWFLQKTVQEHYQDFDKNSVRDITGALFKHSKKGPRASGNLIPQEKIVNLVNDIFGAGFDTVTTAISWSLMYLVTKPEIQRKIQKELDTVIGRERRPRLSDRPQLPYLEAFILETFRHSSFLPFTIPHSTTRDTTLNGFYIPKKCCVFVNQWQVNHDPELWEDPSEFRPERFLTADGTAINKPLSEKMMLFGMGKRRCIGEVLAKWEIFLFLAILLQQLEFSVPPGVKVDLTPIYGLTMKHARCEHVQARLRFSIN
Put plainly: CYP inhibition assay, human liver microsomes, substrate tacrine. Type of series: in vitro ADME. As for the experimental part:
as §1, §2

Another series deals with SRPK1 (Homo sapiens, UniProt Q96SB4). Briefly: In vitro SRPK1 assay (Kinase-Glo). Type of series: biochemical.
SRPK1, sequence (Q96SB4 whole entry, species assumed): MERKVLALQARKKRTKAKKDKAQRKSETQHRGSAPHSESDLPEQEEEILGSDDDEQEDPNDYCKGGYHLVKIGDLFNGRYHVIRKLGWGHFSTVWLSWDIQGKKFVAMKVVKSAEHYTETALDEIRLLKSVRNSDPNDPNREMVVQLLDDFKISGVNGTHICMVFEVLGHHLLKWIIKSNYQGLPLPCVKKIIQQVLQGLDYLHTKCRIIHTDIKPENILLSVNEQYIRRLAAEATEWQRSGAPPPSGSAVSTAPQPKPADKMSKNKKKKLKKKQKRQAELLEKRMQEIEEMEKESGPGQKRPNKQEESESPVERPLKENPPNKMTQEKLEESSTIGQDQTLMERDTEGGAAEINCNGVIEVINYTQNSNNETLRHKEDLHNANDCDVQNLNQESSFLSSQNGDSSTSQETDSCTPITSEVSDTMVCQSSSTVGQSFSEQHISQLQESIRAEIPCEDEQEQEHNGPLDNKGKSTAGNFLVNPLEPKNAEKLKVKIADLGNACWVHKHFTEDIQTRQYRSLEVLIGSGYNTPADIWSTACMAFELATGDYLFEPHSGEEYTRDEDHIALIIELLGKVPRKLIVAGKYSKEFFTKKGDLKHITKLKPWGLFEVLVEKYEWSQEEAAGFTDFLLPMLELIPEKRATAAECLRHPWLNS
The target of a further series is T5, CYP2C19 (Homo sapiens, UniProt P33261).
T5 construct: from tissue; host or cells: human liver microsomes
T5 sequence (P33261 whole entry): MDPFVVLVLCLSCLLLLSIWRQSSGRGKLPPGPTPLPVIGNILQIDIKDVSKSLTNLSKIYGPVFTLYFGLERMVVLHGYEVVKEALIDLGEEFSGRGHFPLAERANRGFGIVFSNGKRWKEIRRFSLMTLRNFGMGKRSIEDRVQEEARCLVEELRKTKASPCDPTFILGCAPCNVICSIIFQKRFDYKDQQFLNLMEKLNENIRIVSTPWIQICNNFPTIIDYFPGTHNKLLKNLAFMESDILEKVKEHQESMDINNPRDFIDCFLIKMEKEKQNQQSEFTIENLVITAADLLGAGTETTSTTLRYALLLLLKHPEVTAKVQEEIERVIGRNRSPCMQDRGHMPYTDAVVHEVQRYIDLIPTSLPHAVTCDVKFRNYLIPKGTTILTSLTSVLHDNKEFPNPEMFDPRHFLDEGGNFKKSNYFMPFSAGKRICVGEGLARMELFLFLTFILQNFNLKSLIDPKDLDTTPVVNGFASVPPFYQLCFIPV
Put plainly: CYP inhibition assay, human liver microsomes, substrate S-mephenytoin. Type of series: in vitro ADME. As for the experimental part:
as §1, §2

Setting [1] is: human liver microsomes, 10 min incubation, LC-MS/MS, read-out: CYP Inhibition Activity (IC50/nM) CYP3A4.
The mark [2] stands for this setting: human liver microsomes, 10 min incubation, LC-MS/MS, read-out: CYP Inhibition Activity (IC50/nM) CYP2C9.
Where [3] appears, read: human liver microsomes, 10 min incubation, LC-MS/MS, read-out: CYP Inhibition Activity (IC50/nM) CYP1A2.
[4] abbreviates: human liver microsomes, 10 min incubation, LC-MS/MS, read-out: CYP Inhibition Activity (IC50/nM) CYP2C19.

Like-named read-outs stand apart in the source and are kept apart here.

T3 sequence (P10635 whole entry): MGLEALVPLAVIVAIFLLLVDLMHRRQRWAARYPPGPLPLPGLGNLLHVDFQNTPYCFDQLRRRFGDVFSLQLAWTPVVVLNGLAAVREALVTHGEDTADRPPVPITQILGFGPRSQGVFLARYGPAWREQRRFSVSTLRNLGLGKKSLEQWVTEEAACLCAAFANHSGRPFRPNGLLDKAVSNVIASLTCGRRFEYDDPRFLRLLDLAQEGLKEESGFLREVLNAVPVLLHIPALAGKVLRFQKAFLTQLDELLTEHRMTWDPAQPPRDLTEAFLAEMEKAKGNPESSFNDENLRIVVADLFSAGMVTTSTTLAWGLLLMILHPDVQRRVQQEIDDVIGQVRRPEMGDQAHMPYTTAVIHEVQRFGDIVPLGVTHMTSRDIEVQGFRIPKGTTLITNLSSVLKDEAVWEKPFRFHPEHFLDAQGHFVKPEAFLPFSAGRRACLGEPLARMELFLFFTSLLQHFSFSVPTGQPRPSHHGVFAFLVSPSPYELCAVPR
T1 sequence (P08684 whole entry): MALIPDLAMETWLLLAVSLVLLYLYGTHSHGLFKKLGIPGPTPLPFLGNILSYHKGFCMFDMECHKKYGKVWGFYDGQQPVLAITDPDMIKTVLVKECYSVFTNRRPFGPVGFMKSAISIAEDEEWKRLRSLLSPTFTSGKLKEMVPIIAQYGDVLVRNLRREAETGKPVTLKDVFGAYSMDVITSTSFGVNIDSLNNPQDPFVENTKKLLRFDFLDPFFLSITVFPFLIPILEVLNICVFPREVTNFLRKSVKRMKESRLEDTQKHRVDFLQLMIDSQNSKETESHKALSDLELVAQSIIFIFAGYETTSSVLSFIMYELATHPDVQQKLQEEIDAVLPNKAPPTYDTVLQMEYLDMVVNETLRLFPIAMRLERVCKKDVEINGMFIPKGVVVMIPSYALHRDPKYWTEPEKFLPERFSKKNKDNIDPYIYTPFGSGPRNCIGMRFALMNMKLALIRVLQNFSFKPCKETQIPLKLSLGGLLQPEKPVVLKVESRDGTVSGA

On to `CC1(O)CCCN(c2ccc(C(F)(F)F)cc2NC(=O)c2ccc(C3CCOCC3)o2)CC1` (racemic) [Example 40, N-(2-(4-hydroxy-4-methylazepan-1-yl)-5-(trifluoromethyl)phenyl)-5-(tetrahydro-2H-pyran-4-yl)furan-2-carboxamide], for which the IC50 at CYP3A4 (setting [1]) is 10900 nM; at CYP2C9 (setting [2]), 8450 nM; at CYP2D6 it was 26900 nM; at CYP1A2 (setting [3]), above 30000 nM; on SRPK1 it was 1.6 nM; at CYP2C19 (setting [4]), 10400 nM.
On to `CC1(O)CCCN(c2ccc(Cl)cc2NC(=O)c2ccc(-c3ccncc3)o2)CC1` (racemic) [Example 38, N-(5-chloro-2-(4-hydroxy-4-methylazepan-1-yl)phenyl)-5-(pyridin-4-yl)furan-2-carboxamide], for which the IC50 on CYP3A4 (setting [1]) came to 10000 nM; on CYP2C9 (setting [2]), 7670 nM; against CYP2D6 it was 15400 nM; at CYP1A2 (setting [3]), 21700 nM; at SRPK1 it was 4 nM; on CYP2C19 (setting [4]), 7500 nM.
Regarding `CC1(C(N)=O)CCN(c2ccc(C(F)(F)F)cc2NC(=O)c2ccc(C3CCOCC3)o2)CC1` [Example 75, 4-methyl-1-(2-(5-(tetrahydro-2H-pyran-4-yl)furan-2-carboxamido)-4-(trifluoromethyl)-phenyl)piperidine-4-carboxamide], the IC50 at CYP3A4 (setting [1]) is 10300 nM; at CYP2C9 (setting [2]), 4400 nM; at CYP2D6 it was 11800 nM; at CYP1A2 (setting [3]), above 30000 nM; against SRPK1, 2.8 nM; at CYP2C19 (setting [4]), 10800 nM.
In the case of `O=C(Nc1cc(C(F)(F)F)ccc1N1CCC(O)(c2ccccc2)CC1)c1ccc(C2CCOCC2)o1` [Example 22, N-(2-(4-hydroxy-4-phenylpiperidin-1-yl)-5-(trifluoromethyl)-phenyl)-5-(tetrahydro-2H-pyran-4-yl)furan-2-carboxamide], the IC50 was 18800 nM at CYP3A4 (setting [1]); 12700 nM on CYP2C9 (setting [2]); above 30000 nM at CYP2D6; 15300 nM at CYP1A2 (setting [3]); 35 nM on SRPK1; 12300 nM at CYP2C19 (setting [4]).
Consider `CC1(C(=O)N2CCOCC2)CCN(c2ccc(C(F)(F)F)cc2NC(=O)c2ccc(C3CCOCC3)o2)CC1` [Example 90, N-(2-(4-methyl-4-(morpholine-4-carbonyl)-piperidin-1-yl)-5-(trifluoromethyl)phenyl)-5-(tetrahydro-2H-pyran-4-yl)furan-2-carboxamide], for which the IC50 on CYP3A4 (setting [1]) was 2800 nM; at CYP2C9 (setting [2]), 1000 nM; against CYP2D6, 11600 nM; at CYP1A2 (setting [3]), above 30000 nM; against SRPK1 it was 5.5 nM; at CYP2C19 (setting [4]) it was 10300 nM.
`O=C(Nc1cc(C2CC2)ccc1N1CCC(O)CC1)c1ccc(C2CCOCC2)o1` [Example 61, N-(5-cyclopropyl-2-(4-hydroxypiperidin-1-yl)phenyl)-5-(tetrahydro-2H-pyran-4-yl)furan-2-carboxamide]: the IC50 was above 30000 nM on CYP3A4 (setting [1]); 7600 nM on CYP2C9 (setting [2]); above 30000 nM at CYP2D6; above 30000 nM at CYP1A2 (setting [3]); 1.2 nM at SRPK1; 10600 nM on CYP2C19 (setting [4]).
Regarding `CC1(CN)CCN(c2ccc(C(F)(F)F)cc2NC(=O)c2ccc(C3CCOCC3)o2)CC1` [Example 81, N-(2-(4-(aminomethyl)-4-methylpiperidin-1-yl)-5-(trifluoromethyl)phenyl)-5-(tetrahydro-2H-pyran-4-yl)furan-2-carboxamide], the IC50 was 21200 nM at CYP3A4 (setting [1]); 23000 nM at CYP2C9 (setting [2]); 5010 nM against CYP2D6; above 30000 nM at CYP1A2 (setting [3]); 2.6 nM at SRPK1.
Turning to `O=C(Nc1cc(C(F)(F)F)ccc1N1CCC(C(=O)O)CC1)c1ccccn1` [Example 30, 1-(2-(picolinamido)-4-(trifluoromethyl)phenyl)-piperidine-4-carboxylic acid], on SRPK1, the IC50 was found to be 76 nM.
The same measure, in the same setting: with `O=C(Nc1cc(C(F)(F)F)ccc1N1CCCC(O)CC1)c1ccccn1` (racemic) [Example 43, N-(2-(4-hydroxyazepan-1-yl)-5-(trifluoromethyl)-phenyl)picolinamide] the figure was 3.4 nM.
As to “5-(pyridin-4-yl)-N-(2-(5-(thiazol-2-ylmethyl)piperazin-1-yl)-5-(trifluoromethyl)phenyl)furan-2-carboxamide [Reference Example 5, reference compound]”, the IC50 against CYP3A4 (microsomes) was 610 nM; at CYP2C9 (microsomes), 250 nM; at CYP2D6 (microsomes), 200 nM; on CYP1A2 (microsomes), 15200 nM; against CYP2C19 (microsomes), 230 nM.
As for `O=C(Nc1cc(C(F)(F)F)ccc1N1CCN(Cc2cocn2)CC1)c1ccc(-c2ccncc2)o1` [Reference Example 4, N-(2-(4-(oxazol-4-ylmethyl)piperazin-1-yl)-5-(trifluoromethyl)phenyl)-5-(pyridin-4-yl)furan-2-carboxamide, reference compound], the IC50 was 830 nM at CYP3A4 (setting [1]); 170 nM at CYP2C9 (setting [2]); 550 nM on CYP2D6; above 30000 nM on CYP1A2 (setting [3]); 290 nM on CYP2C19 (setting [4]).
Take `O=C(Nc1cc(C(F)(F)F)ccc1N1CCN(Cc2ccco2)CC1)c1ccc(-c2ccncc2)o1` [Reference Example 2, N-(2-(4-(furan-2-ylmethyl)piperazin-1-yl)-5-(trifluoromethyl)phenyl)-5-(pyridin-4-yl)furan-2-carboxamide, reference compound]: the IC50 on CYP3A4 (setting [1]) was determined as 1180 nM; at CYP2C9 (setting [2]) it was 610 nM; against CYP2D6, 260 nM; on CYP1A2 (setting [3]) it was 21800 nM; on CYP2C19 (setting [4]) it was 690 nM.
Consider `O=C(Nc1cc(C(F)(F)F)ccc1N1CCN(Cc2cc[nH]n2)CC1)c1ccc(C2CCOCC2)o1` [Reference Example 3, N-(2-(4-((1H-pyrazol-3-yl)methyl)piperazin-1-yl)-5-(trifluoromethyl)-phenyl)-5-(tetrahydro-2H-pyran-4-yl)furan-2-carboxamide, reference compound], for which the IC50 was 4160 nM on CYP3A4 (setting [1]); 230 nM at CYP2C9 (setting [2]); 7080 nM at CYP2D6; above 30000 nM on CYP1A2 (setting [3]); 610 nM at CYP2C19 (setting [4]).
With `O=C(Nc1cc(C(F)(F)F)ccc1N1CCC(CO)CC1)c1ccccn1` [Example 31, N-(2-(4-(hydroxymethyl)piperidin-1-yl)-5-(trifluoromethyl)phenyl)picolinamide], the IC50 against SRPK1 came to 41 nM.
`O=C(Nc1cc(C(F)(F)F)ccc1N1CCN(Cc2ccccn2)CC1)c1ccc(-c2ccncc2)o1` [Reference Example 1, reference compound]: the IC50 at CYP3A4 (setting [1]) was 310 nM; at CYP2C9 it was 170 nM; at CYP2D6 (human liver microsomes, 10 min incubation, LC-MS/MS, read-out: CYP Inhibition Activity (IC50/nM) CYP2D6), 740 nM; on CYP1A2 (setting [3]), above 30000 nM; on CYP2C19 (setting [4]), 230 nM.
Regarding `CC1(O)CCCN(c2ccc(C3CC3)cc2NC(=O)c2ccc(-c3ccncc3)o2)CC1` (racemic) [Example 39, N-(5-cyclopropyl-2-(4-hydroxy-4-methylazepan-1-yl)phenyl)-5-(pyridin-4-yl)-furan-2-carboxamide], the IC50 on CYP3A4 (setting [1]) is 18300 nM; at CYP2C9 (setting [2]) it was 11500 nM; at CYP2D6, above 30000 nM; on CYP1A2 (setting [3]), 17600 nM; against SRPK1, 35 nM.

(Values after patent US11420969B2 (Exonate Limited, priority 2017, dated 2022).)
